Data on two molecules can be found in US20260306463A1, “SIK INHIBITORS TO TREAT CHRONIC KIDNEY DISEASE” (The General Hospital Corporation, priority 2023, published 2026).

Entries after “also recorded” stand apart in the source; their conditions may differ.

Data set [1] deals with mice with adenine diet-induced chronic kidney disease. Kind of data set: 8 week adenine diet CKD study, SK-124 versus once daily PTH injections. The format is in vivo, mouse (female CD1). To be noted: 8 weeks. On the procedure:
FIGS. 4A-4D. […] (A) Study design: Female CD1 mice (n=8/group) were treated with control or 0.2% adenine diet starting at […] of age along with vehicle, PTH (80 mcg/kg/d, IP injections) or SK-124 (40 mg/kg) treatment by oral gavage once daily. Mice were treated for 8 weeks. (B, C) After 8 weeks of treatment, the indicated serum analyte was measured. (D) Whole kidney RNA from the indicated groups was analyzed by RT-qPCR for the indicated fibrosis marker gene.
(§1) 7-week-old female CD1 mice were obtained from Charles River Laboratories (Wilmington, MA) and were fed on 0.2% adenine containing diet (TD.130900; 0.2% Adenine, 0.9% Phosphate, 0.5% Calcium; Envigo) or control diet (TD. 96348) for 6 or 8 weeks to induce chronic kidney disease (CKD). Mice were oral gavaged with 40 mg/kg SK-124, or intraperitonially injected with 80 μg/kg PTH, or treated with vehicle 5 days a week for the duration of the special diet.
For studies with Ubiquitin-Cre^ERt2; Sik2^ff; Sik3^ff mice (JAX #007001 for Ubiquitin-Cre^ERt2: RRID:MGL:5905012 for Sik2 foxed mice; and Sik3^tmla(EUCOMM)Hmgu mice (RRID:MGI:5085429) bred to PGK1 FLPo mice (JAX #011065) in order to generate Sik3 foxed mice), tamoxifen was injected (1 mg, IP, Q48 hours, 3 injections total) in all animals including Cre-negative control littermates housed in cages with Pure-o′Cel bedding at 5 weeks of age. Mice were then fed on 0.2% adenine diet from 6 weeks to 9 weeks of age. Mice were fasted for 6 hours and treated with SK-124 and PTH 4 hours and 2 hours before the sacrifice. Blood and spot urine samples were collected by cheek pouch bleeding and by pipetting urine collected on hydrophobic sand (Labsand; Braintree, MA). Kidneys were immediately snap-frozen in liquid nitrogen for TRIzol (Life Technologies)-Chloroform (Fischer Scientific) based RNA isolation or protein isolation, or fixed in 10% formalin at 4C for 24 hrs for histology. All serum and urine measurements were performed using commercial bioassay detection reagents listed in Table 1, following the manufacturers' instructions. Urine protein levels were measured by Bradford assay and normalized to urine creatinine.
(§2) cDNA was prepared using Primescript RT kit (Takara Inc), with 750 ng RNA per reaction. RT-qPCR was performed by using PerfeCa® SYBR® Green FAstMix® ROX (Quanta bio) in the StepOnePlus™ Real-time PCR System (Applied Biosystems). Hmbs was used as a control housekeeping gene for mouse samples, and B-Actin was used for organoids, relative expression was calculated (2^-deltaCT method) and compared to the mean of control group if necessary. Primers used for RT-qPCR are listed in Table 2 (mouse primers) and Table 3 (human primers).

In a further data set the test system is human kidney organoids. Kind of data set: cisplatin injury of human kidney organoids: immunostaining, organoid size. The format is cell-based. The conditions noted are these: intermittent cisplatin, 5 treatments. On the procedure: FIG. 7. SK-124 preserves human kidney organoid integrity in cisplatin injury model. Human kidney organoids derived from H9 embryonic stem cells were treated with intermittent cisplatin (5 separate treatments) based on published protocols along with the indicated agent. Organoids were cryo-sectioned and immuno-stained with the indicated markers. The top panels show low power images and the bottom panels focus on regions of proximal tubule cells. The graph measures the mean diameter of organoids in the control (no cisplatin), cisplatin+DMSO, and cisplatin+SK-124 treatment groups.
BJFF human induced pluripotent stem cells (hPSCs) were maintained on Geltrexcoated (Thermo Fisher Scientific) plates using StemFit Basic04 Complete (Ajinomoto Co. Inc.) as previously reported(25). The cells were passaged weekly using Accutase (STEMCELL Technologies) for dissociation and Y27632 (Tocris) for adhesion. Directed differentiation of hPSCs into kidney organoids has been published elsewhere (29). Briefly, hPSCs were differentiated into metanephric mesenchyme cells on day 8 by a three-step directed differentiation protocol. Metanephric mesenchyme was transferred into suspension culture in 96-well ultralow adhesion plates (Coming) and further differentiated into kidney organoids, as previously reported(25). Quality control measures of SIX2 immunostaining on day 8 of differentiation and CDH1, LTL, PODXL, CD146, MEIS1/2/3, and SYTOX-blue staining on day 21 were performed on all batches of kidney organoids to limit batch-to-batch heterogeneity. Kidney organoids were maintained in 200 μl of basal media consisting of Advanced RPMI (Thermo Fisher Scientific) and GlutaMAX (Thermo Fisher Scientific) in 96-well plates, as previously reported. Media changes were conducted three times weekly with removal of 90 [l and addition of 100 μl of fresh basal media.
For cisplatin induced injury, day 49 organoids were treated with 5 μM cisplatin in basal media after full media change. After 24 hours, full media exchanges were performed. This 24-hour treatment was performed twice a week, on day 52-53, day 56-57, day 59-60, and day 63-64 as well, for a total of five cisplatin treatments. Samples were obtained for RT-qPCR and immunostaining immediately following each 24-hour treatment with cisplatin, and from corresponding controls.
Following the treatment, the organoids were collected and immediately fixed in 4% PFA in PBS for 1 hour at room temperature, submerged in 30% sucrose overnight at 4° C., then embedded in O.C.T. Compound (4585. Fisher HealthCare). Subsequently, […] frozen sections were prepared via cryo-sectioning by a cryostat. After 1 hr blocking at room temperature, the sections were treated overnight at 4° C. with primary antibodies in antibody dilution buffer (ADB) with biotinylated LTL (1:200, B-1325, Vector), rat anti-CDH1 (1:500, ab11512, Abcam), goat anti-PODXL (1:500, AF1658, R&D Systems), as well as the antibody of interest, either mouse anti-p21 (1:200, NBP2-43697, Novus Biologicals), or rabbit anti-γH2AX (1:100, 2577, Cell Signaling) antibodies. For the optimum labeling of LTL by biotin/streptavidin interaction, the Streptavidin/Biotin Blocking Kit (SP-2002, Vector Laboratories) was applied according to the manufacturer's instructions. After washing, the samples were stained for 1 hour at RT with the nuclear dye-SYTOX Blue (1:500. S 11348, Invitrogen) and the corresponding secondary antibodies in ADB such as streptavidin-AF750 (1:500, S21384, Invitrogen), donkey anti-rat IgG-AF594 (1:500, A21209, Invitrogen), donkey anti-goat IgG-AF555 (1:500, A21432, Invitrogen), and donkey anti-rabbit IgG-AF488 (1:500, A21206, Invitrogen) for γH2AX or donkey anti-mouse IgG-AF488 (1:500, A21202, Invitrogen) for p21 antibodies as well as mouse anti-Meisl/⅔ (1:200, sc-101850, SantaCruz) conjugated antibody, and slides were mounted with Vectashield antifade mounting medium (H1000, Vector Laboratories). […]

Data set [2] concerns renal fibrosis, adenine-induced CKD mice. Kind of data set: renal fibrosis in adenine CKD mice (trichrome, immunoblot, RT-qPCR). It counts as in vivo, mouse. To be noted: adenine diet; SK-124 40 mg/kg oral. On the procedure: FIGS. 3A-3C. SK-124 treatment reduces fibrosis in adenine-induced chronic kidney disease. (A) Representative trichrome stained sections from the indicated groups. Darker staining indicates fibrosis which is increased in vehicle-treated adenine diet mice and reduced by SK-124 treatment. (B) Kidney protein lysates were isolated and analyzed by immunoblotting for alpha-smooth muscle actin (αSMA) (top) and GAPDH (bottom). (C) Whole kidney RNA from the indicated groups was analyzed by RT-qPCR for the indicated fibrosis marker.
as §1, §2
(§3) Snap-frozen kidneys were homogenized in NP-40 lysis buffer (FNN0021, Thermo) with using TissueLyserII at 30 Hz for 5 minutes. Samples were rotated at 4 deg for 20 minutes and frozen on dry ice and thawed. After centrifuging for 30 minutes at 4 deg, the supernatants were collected. After determining the protein concentration by Bradford assay, […] of protein was loaded for western blotting. For KGli cells, the cells were washed with cold PBS then scraped into TNT buffer (Tris-NaCl-Tween buffer, 20 mM Tris-HCl pH 8, 200 mM NaCl, 0.5% Triton X-100 containing 1X-protease inhibitor cocktail (Bimake Inc. 100X, Cat. #B14001), 1 mM DTT, 1 mM NaF, 1 mM Vanadate (New England Biolabs)). Next, samples were vortexed for 1 minute and centrifuged at 14,000g for 6 minutes at 4 deg, and the supernatant was collected.
(§4) For immunoblotting, the lysates were separated by SDS-PAGE (Bio-rad precast gels), and proteins were transferred to the nitrocellulose membranes. Then, the membranes were blocked in 5% milk in tris-buffered saline plus 0.05% Tween-20 (TBST) and incubated with primary antibody in 5% BSA-TBST overnight at 4° C. Next day, after washing, membranes were incubated with anti-rabbit HRP-coupled secondary antibody (1:2500, Cell Signaling Technology, 7074S) or anti-mouse HRP-coupled secondary antibody (1:2500, Cell Signaling, 7076S), and signals were detected with SuperSignal West Femto Maximum Sensitivity Substrate (Thermo scientific) using the iBright imager (ThermoFisher). The antibodies used are: SIK2 (1:1000, Cell Signaling, 6919), GAPDH (1:1000, Cell Signaling, 2118), αSMA (1:1000, Invitrogen, 14-9760-82), pSMAD3 (1:1000, Cell Signaling, 9520), and SMAD⅔ (1:1000, Cell Signaling, 8685).
Hematoxylin and eosin (H+E) staining was performed on some sections using standard protocols and Masson's Trichome stain for fibrosis was performed according to the manufacturer's instructions (ab150686, abcam). Formalin-fixed paraffin embedded sections were also used for in situ hybridization according to the manufacturer instructions (ACDbio). Briefly, the sections were blocked with hydrogen peroxide for 10 minutes at room temperature, followed by antigen retrieval with Pepsin (R2283, Sigma-Aldrich) in humidified chamber in 40° C. HybEZ oven. The Sik1 (526411, ACD), Sik2 (526421, ACD), or Sik3 (526431, ACD) probe was added to the sections for 2 hours in the humidified chamber at 40° C. Then, the signal was amplified (322310, ACD) and detected using Brown DAB kit (322310, ACD). […]

The test system of data set [3] is SIK isoforms (Sik1, SIK2, Sik3). Kind of data set: SIK isoform expression in kidneys of adenine diet mice (immunoblot, RT-qPCR, RNAscope). It counts as in vivo, mouse. The protocol:
FIGS. 2A-2C. SIK isoform expression in adenine-induced chronic kidney disease. (A) Kidney protein lysates were isolated and analyzed by imnunoblotting for SIK2 (top) and GAPDH (bottom). SIK2 protein levels are increased in adenine diet. (B) Whole kidney RNA from the indicated groups was analyzed by RT-qPCR for the indicated SIK isoform. (C) Kidney sections from control and CKD (6 weeks adenine diet) were stained using RNAscope (darker shade) for the indicated SIK isoform.
as §2, §3
as §4, with “The antibodies used are: SIK2 (1:1000, Cell Signaling, 6919), GAPDH (1:1000, Cell Signaling, 2118), αSMA (1:1000, Invitrogen, 14-9760-82), pSMAD3 (1:1000, Cell Signaling, 9520), and SMAD⅔ (1:1000, Cell Signaling, 8685).” left out
Hematoxylin and eosin (H+E) staining was performed on some sections using standard protocols and Masson's Trichome stain for fibrosis was performed according to the manufacturer's instructions (ab150686, abcam). […] Then, the signal was amplified (322310, ACD) and detected using Brown DAB kit (322310, ACD).

For data set [4], the system named is whole kidney transcriptome. Description: bulk RNA-sequencing of whole kidney, adenine CKD mice. The format is in vivo, mouse. The conditions noted are these: bulk RNA-seq; adenine vs control diet, or SK-124 vs vehicle in CKD mice. The protocol:
FIGS. 6A-6F. The effects of SK-124 treatment at the transcriptomic level in adenine-induced mouse chronic kidney disease. RNA-seq was performed on whole kidney RNA samples (n=7/group) from FIG. 1. Volcano plot show gene regulated (>2-fold change, p(adj)<0.05) by CKD (versus control diet, A) or in CKD by SK-124 (versus vehicle control, B). In Volcano plot, representative fibrosis markers (Col3a1, Vim, Serpinel) and proximal tubule integrity (Lrp2. Atplai, and Hnf4a) are shown. Scatterplot (C) and heatmap (D) showing integration of individual RNA-seq comparisons. […] (E) Single cell RNA-sequencing was performed on dissociated kidneys from adenine diet fed mice treated with vehicle or SK-124 (n=4/group). […] (F) Relative cellularity of each annotated cluster is shown in pie chart format for adenine+vehicle (CKD-Veh) or adenine+SK-124 (CKD-SK-124) mice.
Isolated RNA samples from the mouse adenine diet study and human kidney organoid experiment were submitted to Novogene and bulk-RNA sequencing on NovaSeq X Plus Ilumina Novoseq Platform. Sequencing reads were mapped to the mouse reference genome (mm10/GRCm38) or human reference genome (GRCh38/hg38) using Salmon and differential gene expression analysis was performed using DESeq2.

The mark [5] stands for this setting: SK-124 40 mg/kg oral gavage once daily, or PTH 80 mcg/kg/d IP.
[6] abbreviates: whole kidney RNA, RT-qPCR, 6 weeks adenine diet.

Regarding “PTH: Human PTH1-34, dissolved in 10 mM acetic acid”, in data set [1] (setting [5]), the CKD-MBD markers entry is recorded as “did not cause these effects” and the kidney function result was “did not cause these effects”. Also, the “fibrosis marker gene expression” value in data set [1] (whole kidney RT-qPCR, SK-124 40 mg/kg oral, or PTH 80 mcg/kg/d IP) is “did not cause these effects”. Further, in the data set with human kidney organoids, the “patterns of cisplatin-induced injury” value was “minimal effects”.
For the molecule `Nc1ncnc2nc[nH]c12` [adenine], in data set [2], the “fibrosis (trichrome staining)” value is listed as “increased”. Also, the SIK2 protein level result in data set [3] (kidney lysates, immunoblot, 0.2% adenine diet, 6 weeks) was “increased; also recorded: robust SIK2 upregulation”. In data set [3] (setting [6]), the Sik1 expression result is given as “increased”, the Sik2 expression entry is listed as “increased” and the Sik3 expression entry is recorded as “trends towards increased”. For the same molecule, in data set [4], the “injury markers (Col3a1, Vim, Serpine1)” value is “upregulated” and the “markers of intact proximal epithelial cells (Lrp2, Atpla1, Hnf4a) / epithelial cell integrity” value is “reduced”.
